Experimental data taken from patent publication US20170209514A1, “Method For Promoting Bone Length Growth” (Novatec Co., Ltd., priority 2013, published 2017).

How the values were obtained:
Type in all cases: in vivo, Sprague-Dawley rats
growth plate = assay: Changes in cartilaginous tissues within the growth plate (H&E staining); conditions: rats, after 10-day administration, FIGS. 5A-7
Protocol: (§1) 3 weeks-old, male Sprague-Dawley rats were obtained and stabilized for 3 days. The feeding conditions included the temperature of 24±2° C., the light-dark cycle of 12 hours, and common solid feed without the inclusion of antibiotics. While the Control group was treated with saline solution, the bamboo (Bambusae caulis in Taeniam) extract, which was prepared in the powder form as described in the above example 1 and added with water, was orally administered once daily. The Positive Control group was treated subcutaneously with the injection of Eutropin (LG Life Sciences, South Korea) at 20 μg/kg once daily.
(§2) The administered substances and dosages in each group are as follows: • Control Group: normal saline solution 1 ml • Positive Control Group: growth hormone 20 μg/kg • Bamboo (Bambusae caulis in Taeniam)-treated Group: 200 mg/kg
(§3) After 10 days of feeding and administration of the above-mentioned substances, the rats were sacrificed with autopsy performed to find the following results.
In order to measure the length of the growth plate zone, the cartilaginous tissues were fixated after autopsy, followed by H&E staining and microscope examination. The length of the growth plate zone was measured five(5) times for each sample. The resulting mean values as obtained were used as a representative value for evaluating their significance.

[1] = Change in body weight of experimental animals; conditions: rats, observation of 10 days, FIG. 1 (bamboo extract 200 mg/kg oral; GH 20 μg/kg s.c.)
Protocol: as §1
Regarding the administration method of the bamboo (Bambusae caulis in Taeniam) extract according to the present invention, rats in all the groups except for the Positive Control group were administered into their oral cavities, while all the rats were administered once daily.
The administered substances and dosages in each group are as follows: • Control Group: normal saline solution 1 ml • Positive Control Group: growth hormone 20 μg/kg • Bamboo (Bambusae caulis in Taeniam)-treated Group: 200 mg/kg […]
Rats of each group in Experiment <1-1> were tested for their body weight at pre- and post-feeding of 10 days. […] The measured values were statistically analyzed for mean value and standard deviation.

tibia = assay: Measurement of changes in tibia length by X-ray; conditions: rats, after 10-day administration, vs Control group, FIGS. 3A-3C & 4
Protocol: as §1, §2, §3
After 10-day administration as described in Experiment <1-1>, both right and left tibias of the rats in the experimental group (i.e. Bamboo (Bambusae caulis in Taeniam) extract-treated group) and the control groups were collected, followed by the removal of the muscles, fats and ligaments attached to the bone tissues. […] Tibia length was measured by X-ray radiographs on the tibias.

osteocalcin = assay: Osteoblast-activating factor osteocalcin in the serum (ELISA); conditions: rats, after 10-day administration, in comparison with the Control group, FIG. 10
Protocol: as §1, §2, §3
After the completion of the administration, blood was collected from the hearts of the experimental rats and coagulated. Serum was then separated so as to obtain samples. Subsequently, the total level of osteocalcin in the serum was measured by using Rat Ostecalcin/Bone Gla Protein. OT/BGP ELISA Kit (Cusabio, product no.: CSB-E05129r).

GH: Growth hormone positive control, Eutropin (LG Life Sciences, South Korea), injected subcutaneously at 20 μg/kg once daily
Length of the hypertrophic zone within the growth plate (growth plate): increased greater than that of the Control group | Length of the proliferative zone within the growth plate (growth plate): increased greater than that of the Control group | Weight change [1]: no significant difference in weight change | Total tibia length (tibia): increased greater than that of the Control group | Level of osteocalcin in the serum (osteocalcin): significantly increased
